Reference: ChEMBL document CHEMBL3046172, “Synthesis and Insecticidal Activity of New 2- and 6-Substituted 4-Acetoxyquinolines” (1997)

Assays:
Assay type in all cases: functional
Bombyx mori [1] = assay: Insecticidal activity against Bombyx mori Syogetsu x Syunrei third-instar larvae assessed as insect mortality upon topical application at 0.3 ug measured 48 hr post compound treatment
Bombyx mori [2] = assay: Insecticidal activity against Bombyx mori Syogetsu x Syunrei third-instar larvae assessed as insect mortality upon topical application at 1 ug measured 48 hr post compound treatment
Bombyx mori [3] = assay: Insecticidal activity against Bombyx mori Syogetsu x Syunrei third-instar larvae assessed as insect mortality upon topical application at 3 ug measured 48 hr post compound treatment
Bombyx mori [4] = assay: Insecticidal activity against Bombyx mori Syogetsu x Syunrei third-instar larvae assessed as insect mortality upon topical application at 10 ug measured 48 hr post compound treatment
Plutella xylostella [5] = assay: Insecticidal activity against Plutella xylostella (diamondback moth) third-instar larvae reared on cabbage plants leaves pre-treated with 500 ppm compound assessed as insect mortality measured 2 days post compound treatment
Spodoptera litura [6] = assay: Insecticidal activity against Spodoptera litura third-instar larvae reared on artificial diets of Insecta LF assessed as insect mortality at 250 ppm measured 2 days post compound treatment; settings: 48 h
Spodoptera litura [7] = assay: Insecticidal activity against Spodoptera litura third-instar larvae reared on artificial diets of Insecta LF assessed as insect mortality at 125 ppm measured 2 days post compound treatment; settings: 48 h
Spodoptera litura [8] = assay: Insecticidal activity against Spodoptera litura third-instar larvae reared on artificial diets of Insecta LF assessed as insect mortality at 500 ppm measured 2 days post compound treatment; settings: 48 h
Plutella xylostella [9] = assay: Insecticidal activity against Plutella xylostella (diamondback moth) third-instar larvae reared on cabbage plants leaves pre-treated with 250 ppm compound assessed as insect mortality measured 2 days post compound treatment
Plutella xylostella [10] = assay: Insecticidal activity against Plutella xylostella (diamondback moth) third-instar larvae reared on cabbage plants leaves pre-treated with 1000 ppm compound assessed as insect mortality measured 2 days post compound treatment
Bombyx mori [11] = assay: Insecticidal activity against Bombyx mori Gunpo x Shugyoku third-instar larvae assessed as insect mortality upon topical application at 10 ug measured 48 hr post compound treatment

| Compound | mortality (Bombyx mori [1]) [%] | mortality (Bombyx mori [2]) [%] | mortality (Bombyx mori [3]) [%] | mortality (Bombyx mori [4]) [%] | further results |
| --- | --- | --- | --- | --- | --- |
| CCCCCCC/C=C/c1nc2ccccc2c(OC(C)=O)c1C | 70 | 76 | 100 | – | – |
| CCCCCCCCCc1nc2ccccc2c(OC(C)=O)c1C | – | 15 | 100 | 100 | – |
| CCCCCCCc1nc2ccccc2c(OC(C)=O)c1C | 0 | 10 | 100 | 100 | – |
| CCCCCCc1nc2ccccc2c(OC(C)=O)c1C | – | 10 | 100 | 100 | – |
| CCCCCc1nc2ccccc2c(OC(C)=O)c1C | – | 0 | 40 | 100 | – |
| CCCCc1nc2ccccc2c(OC(C)=O)c1C | – | – | 35 | 95 | – |
| CCCc1nc2ccccc2c(OC(C)=O)c1C | – | – | 0 | 0 | – |
| CCc1nc2ccccc2c(OC(C)=O)c1C | 0 | 95 | 100 | – | – |
| CC(=O)Oc1c(C)c(C)nc2ccccc12 | – | 0 | 71 | 100 | – |
| CCCCCCCCCc1nc2ccc(F)cc2c(OC(C)=O)c1C | – | – | – | 10 | – |
| CCCCCCc1nc2ccc(F)cc2c(OC(C)=O)c1C | – | 0 | 60 | 75 | – |
| CCc1nc2ccc(F)cc2c(OC(C)=O)c1C | 70 | 100 | – | – | mortality at 500 ppm (Plutella xylostella [5]): 70%; mortality at 250 ppm (Spodoptera litura [6]): 90%; mortality at 125 ppm (Spodoptera litura [7]): 55%; mortality at 500 ppm (Spodoptera litura [8]): 100%; mortality at 250 ppm (Plutella xylostella [9]): 42.5%; mortality at 1000 ppm (Plutella xylostella [10]): 97.5% |
| CC(=O)Oc1c(C)c(C)nc2ccc(F)cc12 | 0 | 95 | 100 | – | – |
| C=Cc1nc2ccccc2c(OC(C)=O)c1C | – | – | – | – | mortality (Bombyx mori [11]): 0% |
| C/C=C/c1nc2ccccc2c(OC(C)=O)c1C | – | – | – | 0 | – |
| CCCCCCC/C=C/c1nc2ccc(F)cc2c(OC(C)=O)c1C | – | – | – | 0 | – |
| CCCCCCC/C=C\c1nc2ccc(F)cc2c(OC(C)=O)c1C | 0 | 10 | 100 | 100 | – |
